Twelve compounds from patent US10988459B2 (priority 2015, dated 2021) can be followed below.

For the assay, the target named is human RIP1 kinase domain (2-375) (Homo sapiens (Human), UniProt Q13546). The assay is described as follows: biochemical. In kind it is biochemical. The conditions noted are these: human RIP1 kinase domain (2-375), 50 uM ATP, 2 hours incubation, Transcreener ADP assay; read-out: RIP1 Ki. In a few lines: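 50 nM purified kinase domain from baculovirus-infected insect cells, incubated 2 h with compound in 50 mM Hepes pH 7.5, 30 mM MgCl2, 1 mM DTT, 50 uM ATP, 0.002% Brij-35, 0.5% DMSO. ADP formation read by Transcreener FP at 633 nm excitation. Ki^app fitted with the Morrison tight-binding equation.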
Chain of human RIP1 kinase domain (2-375) (Q13546 2-375): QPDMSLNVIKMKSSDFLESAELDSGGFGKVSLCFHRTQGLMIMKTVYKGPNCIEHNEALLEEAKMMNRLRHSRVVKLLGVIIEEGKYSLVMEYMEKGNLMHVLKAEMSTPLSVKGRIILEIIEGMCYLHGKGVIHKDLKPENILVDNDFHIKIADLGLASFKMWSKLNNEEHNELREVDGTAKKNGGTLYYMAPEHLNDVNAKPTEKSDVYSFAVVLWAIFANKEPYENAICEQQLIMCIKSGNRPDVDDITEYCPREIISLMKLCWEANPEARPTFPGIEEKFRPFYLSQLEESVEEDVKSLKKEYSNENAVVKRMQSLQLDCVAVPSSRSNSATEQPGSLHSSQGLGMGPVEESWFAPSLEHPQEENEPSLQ

As to `CN1C(=O)[C@@H](NC(=O)c2cn(Cc3ccc(F)c(F)c3)cn2)COc2c1cnn2C` [Example 183, (S)-1-(3,4-difluorobenzyl)-N-(1,4-dimethyl-5-oxo-4,5,6,7-tetrahydro-1H-pyrazolo[3,4-b][1,4]oxazepin-6-yl)-1H-imidazole-4-carboxamide], the Ki amounted to 1600 nM.

For `CCC1Cc2c(C(=O)N[C@H]3COc4ccccc4N(C)C3=O)n[nH]c2CO1` (stereo partly drawn) [Example 186, 5-ethyl-N—((S)-5-methyl-4-oxo-2,3,4,5-tetrahydrobenzo[b][1,4]oxazepin-3-yl)-1,4,5,7-tetrahydropyrano[3,4-c]pyrazole-3-carboxamide], the Ki is 135 nM. For `CC1CCn2nnc(C(=O)N[C@H]3COc4ccccc4N(C)C3=O)c2C1` (stereo partly drawn) [Example 187, 5-methyl-N—((S)-5-methyl-4-oxo-2,3,4,5-tetrahydrobenzo[b][1,4]oxazepin-3-yl)-4,5,6,7-tetrahydro-[1,2,3]triazolo[1,5-a]pyridine-3-carboxamide], the Ki came out at 210 nM. Then `CN1C(=O)[C@@H](NC(=O)c2n[nH]c3c2C[C@@H](C(F)(F)F)CC3)COc2c1cnn2C` [Example 188, (S)—N—((S)-1,4-dimethyl-5-oxo-4,5,6,7-tetrahydro-1H-pyrazolo[3,4-b][1,4]oxazepin-6-yl)-5-(trifluoromethyl)-4,5,6,7-tetrahydro-1H-indazole-3-carboxamide], with 4500 nM; and `CN1C(=O)[C@@H](NC(=O)c2n[nH]c3c2CC2(CC3)CC2(F)F)COc2ccccc21` (stereo partly drawn) [Example 189, 2,2-difluoro-N—((S)-5-methyl-4-oxo-2,3,4,5-tetrahydrobenzo[b][1,4]oxazepin-3-yl)-1′,4′,6′,7′-tetrahydrospiro[cyclopropane-1,5′-indazole]-3′-carboxamide], with 260 nM. In the case of `CC1CCn2cnc(C(=O)N[C@H]3COc4ccccc4N(C)C3=O)c2C1` (stereo partly drawn) [Example 190] it was 262 nM. On to `CN1C(=O)[C@@H](NC(=O)c2nnn3ccc(C(F)(F)F)cc23)COc2ccccc21` [Example 191, (S)—N-(5-methyl-4-oxo-2,3,4,5-tetrahydrobenzo[b][1,4]oxazepin-3-yl)-5-(trifluoromethyl)-[1,2,3]triazolo[1,5-a]pyridine-3-carboxamide], for which the Ki was 22 nM. Then `CN1C(=O)[C@@H](NC(=O)c2nnn3c2CC(C(F)(F)F)CC3)COc2ccccc21` (stereo partly drawn) [Example 192, N—((S)-5-methyl-4-oxo-2,3,4,5-tetrahydrobenzo[b][1,4]oxazepin-3-yl)-5-(trifluoromethyl)-4,5,6,7-tetrahydro-[1,2,3]triazolo[1,5-a]pyridine-3-carboxamide], with 105 nM. Then `CN1C(=O)[C@@H](NC(=O)c2ncn3ccc(C(F)(F)F)nc23)COc2ccccc21` [Example 193, (S)—N-(5-methyl-4-oxo-2,3,4,5-tetrahydrobenzo[b][1,4]oxazepin-3-yl)-2-(trifluoromethyl)imidazo[1,5-a]pyrimidine-8-carboxamide], with 57.5 nM; and `CCC1(C)Cc2c(C(=O)N[C@H]3COc4ccccc4N(C)C3=O)n[nH]c2CO1` (stereo partly drawn) [Example 194, 5-ethyl-5-methyl-N-((S)-5-methyl-4-oxo-2,3,4,5-tetrahydrobenzo[b][1,4]oxazepin-3-yl)-1,4,5,7-tetrahydropyrano[3,4-c]pyrazole-3-carboxamide], with 167 nM. `CN1C(=O)C(NC(=O)c2ncn(Cc3ccccc3)n2)CCn2ccnc21` (stereo not drawn) [Example 195, 1-benzyl-N-(9-methyl-8-oxo-6,7,8,9-tetrahydro-5H-imidazo[1,2-a][1,3]diazepin-7-yl)-1H-1,2,4-triazole-3-carboxamide]: the Ki stood at 123 nM.

As for `CN1C(=O)C(NC(=O)c2cn(Cc3ccccc3)nn2)CCn2ccnc21` (stereo not drawn) [Example 196, 1-benzyl-N-(9-methyl-8-oxo-6,7,8,9-tetrahydro-5H-imidazo[1,2-a][1,3]diazepin-7-yl)-1H-1,2,3-triazole-4-carboxamide], the Ki amounted to 341 nM.

One may read the Ki as the equilibrium dissociation constant of an inhibitor or competing ligand from its target.
